Assays:
Assay in all cases: relative viability (nuclei count vs DMSO), 5 days (fraction); higher = more cells survive
NCI-H1437 = test system: NCI-H1437
Method in brief: (§1)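 Cells from lung cancer lines were seeded into 1536-well plates and, one day later, dosed by pin tool. Treatments were either a single drug or a fixed dose of an anchor drug with five library-drug doses (not always all listed) in √10 steps. After 5 days, nuclei were stained in a one-step fixation (final 0.05% Triton X-100, 1% formaldehyde, 1 ug/ml Hoechst) and counted on 4× images, and relative viability is the treated-to-vehicle nuclei ratio, as the median of duplicate plates.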

A-427 = test system: A-427
Method in brief: as §1

SW 900 = test system: SW 900
Method in brief: as §1

NCI-H838 = test system: NCI-H838
Method in brief: as §1

NCI-H1975 = test system: NCI-H1975
Method in brief: as §1

NCI-H1666 = test system: NCI-H1666
Method in brief: as §1

NCI-H520 = test system: NCI-H520
Method in brief: as §1

HCC-15 = test system: HCC-15
Method in brief: as §1

SK-MES-1 = test system: SK-MES-1
Method in brief: as §1

COR-L 105 = test system: COR-L 105
Method in brief: as §1

NCI-H596 = test system: NCI-H596
Method in brief: as §1

HCC-827 = test system: HCC-827
Method in brief: as §1

COR-L23 = test system: COR-L23
Method in brief: as §1

EKVX = test system: EKVX
Method in brief: as §1

LCLC-103H = test system: LCLC-103H
Method in brief: as §1

NCI-H522 = test system: NCI-H522
Method in brief: as §1

HARA = test system: HARA
Method in brief: as §1

NCI-H441 = test system: NCI-H441
Method in brief: as §1

NCI-H23 = test system: NCI-H23
Method in brief: as §1

NCI-H1792 = test system: NCI-H1792
Method in brief: as §1

201T = test system: 201T
Method in brief: as §1

LK-2 = test system: LK-2
Method in brief: as §1

NCI-H650 = test system: NCI-H650
Method in brief: as §1

Which results are given for `COc1cc(N2CCC(C(N)=O)CC2)ccc1Nc1nc(N)c(Cl)c(Nc2ccccc2S(=O)(=O)C(C)C)n1` [HG-5-88-01] + Cc1nc(Nc2ncc(C(=O)Nc3c(C)cccc3Cl)s2)cc(N2CCN(CCO)CC2)n1 [Dasatinib] (partner 0.075 µM)?
relative viability (NCI-H1437; first compound 0.04 µM): 0.411; relative viability (NCI-H1437; first compound 0.1265 µM): 0.306; relative viability (NCI-H1437; first compound 0.4 µM): 0.231; relative viability (NCI-H1437; first compound 1.265 µM): 0.234; relative viability (NCI-H1437; first compound 4 µM): 0.267; relative viability (A-427; first compound 0.04 µM): 0.77; relative viability (A-427; first compound 0.1265 µM): 0.686; relative viability (A-427; first compound 0.4 µM): 0.676; relative viability (A-427; first compound 1.265 µM): 0.746; relative viability (A-427; first compound 4 µM): 0.431; relative viability (SW 900; first compound 0.04 µM): 0.848; relative viability (SW 900; first compound 0.1265 µM): 0.548; relative viability (SW 900; first compound 0.4 µM): 0.391; relative viability (SW 900; first compound 1.265 µM): 0.578; relative viability (SW 900; first compound 4 µM): 0.17; relative viability (NCI-H838; first compound 0.04 µM): 0.266; relative viability (NCI-H838; first compound 0.1265 µM): 0.279; relative viability (NCI-H838; first compound 0.4 µM): 0.233; relative viability (NCI-H838; first compound 1.265 µM): 0.251; relative viability (NCI-H838; first compound 4 µM): 0.181; relative viability (NCI-H1975; first compound 0.04 µM): 0.358; relative viability (NCI-H1975; first compound 0.1265 µM): 0.352; relative viability (NCI-H1975; first compound 0.4 µM): 0.284; relative viability (NCI-H1975; first compound 1.265 µM): 0.217; relative viability (NCI-H1975; first compound 4 µM): 0.145; relative viability (NCI-H1666; first compound 0.04 µM): 0.873; relative viability (NCI-H1666; first compound 0.1265 µM): 0.837; relative viability (NCI-H1666; first compound 0.4 µM): 0.643; relative viability (NCI-H1666; first compound 1.265 µM): 0.539; relative viability (NCI-H1666; first compound 4 µM): 0.389; relative viability (NCI-H520; first compound 0.04 µM): 0.201; relative viability (NCI-H520; first compound 0.1265 µM): 0.176; relative viability (NCI-H520; first compound 0.4 µM): 0.184; relative viability (NCI-H520; first compound 1.265 µM): 0.162; relative viability (NCI-H520; first compound 4 µM): 0.2; relative viability (HCC-15; first compound 0.04 µM): 0.669; relative viability (HCC-15; first compound 0.1265 µM): 0.59; relative viability (HCC-15; first compound 0.4 µM): 0.416; relative viability (HCC-15; first compound 1.265 µM): 0.397; relative viability (HCC-15; first compound 4 µM): 0.347; relative viability (SK-MES-1; first compound 0.04 µM): 0.335; relative viability (SK-MES-1; first compound 0.1265 µM): 0.304; relative viability (SK-MES-1; first compound 0.4 µM): 0.124; relative viability (SK-MES-1; first compound 1.265 µM): 0.112; relative viability (SK-MES-1; first compound 4 µM): 0.155; relative viability (COR-L 105; first compound 0.04 µM): 0.305; relative viability (COR-L 105; first compound 0.1265 µM): 0.314; relative viability (COR-L 105; first compound 0.4 µM): 0.254; relative viability (COR-L 105; first compound 1.265 µM): 0.203; relative viability (COR-L 105; first compound 4 µM): 0.19; relative viability (NCI-H596; first compound 0.04 µM): 0.6; relative viability (NCI-H596; first compound 0.1265 µM): 0.494; relative viability (NCI-H596; first compound 0.4 µM): 0.544; relative viability (NCI-H596; first compound 1.265 µM): 0.416; relative viability (NCI-H596; first compound 4 µM): 0.288; relative viability (HCC-827; first compound 0.04 µM): 0.279; relative viability (HCC-827; first compound 0.1265 µM): 0.271; relative viability (HCC-827; first compound 0.4 µM): 0.235; relative viability (HCC-827; first compound 1.265 µM): 0.101; relative viability (HCC-827; first compound 4 µM): 0.118; relative viability (COR-L23; first compound 0.04 µM): 0.536; relative viability (COR-L23; first compound 0.1265 µM): 0.465; relative viability (COR-L23; first compound 0.4 µM): 0.436; relative viability (COR-L23; first compound 1.265 µM): 0.374; relative viability (COR-L23; first compound 4 µM): 0.169; relative viability (EKVX; first compound 0.04 µM): 0.479; relative viability (EKVX; first compound 0.1265 µM): 0.563; relative viability (EKVX; first compound 0.4 µM): 0.435; relative viability (EKVX; first compound 4 µM): 0.273; relative viability (LCLC-103H; first compound 0.04 µM): 0.522; relative viability (LCLC-103H; first compound 0.1265 µM): 0.464; relative viability (LCLC-103H; first compound 0.4 µM): 0.418; relative viability (LCLC-103H; first compound 1.265 µM): 0.373; relative viability (LCLC-103H; first compound 4 µM): 0.341; relative viability (NCI-H522; first compound 0.04 µM): 1.02; relative viability (NCI-H522; first compound 0.1265 µM): 0.897; relative viability (NCI-H522; first compound 0.4 µM): 0.813; relative viability (NCI-H522; first compound 1.265 µM): 0.781; relative viability (NCI-H522; first compound 4 µM): 0.849; relative viability (HARA; first compound 0.04 µM): 0.25; relative viability (HARA; first compound 0.1265 µM): 0.255; relative viability (HARA; first compound 0.4 µM): 0.147; relative viability (HARA; first compound 1.265 µM): 0.113; relative viability (HARA; first compound 4 µM): 0.219; relative viability (NCI-H441; first compound 0.04 µM): 0.601; relative viability (NCI-H441; first compound 0.1265 µM): 0.625; relative viability (NCI-H441; first compound 0.4 µM): 0.31; relative viability (NCI-H441; first compound 1.265 µM): 0.314; relative viability (NCI-H441; first compound 4 µM): 0.231; relative viability (NCI-H23; first compound 0.04 µM): 0.703; relative viability (NCI-H23; first compound 0.1265 µM): 0.84; relative viability (NCI-H23; first compound 0.4 µM): 0.51; relative viability (NCI-H23; first compound 1.265 µM): 0.588; relative viability (NCI-H23; first compound 4 µM): 0.265; relative viability (NCI-H1792; first compound 0.04 µM): 0.959; relative viability (NCI-H1792; first compound 0.1265 µM): 0.693; relative viability (NCI-H1792; first compound 0.4 µM): 0.78; relative viability (NCI-H1792; first compound 4 µM): 0.525; relative viability (201T; first compound 0.04 µM): 0.616; relative viability (201T; first compound 0.1265 µM): 0.56; relative viability (201T; first compound 0.4 µM): 0.545; relative viability (201T; first compound 1.265 µM): 0.512; relative viability (201T; first compound 4 µM): 0.267; relative viability (LK-2; first compound 0.04 µM): 0.334; relative viability (LK-2; first compound 0.1265 µM): 0.235; relative viability (LK-2; first compound 0.4 µM): 0.173; relative viability (LK-2; first compound 1.265 µM): 0.247; relative viability (LK-2; first compound 4 µM): 0.184; relative viability (NCI-H650; first compound 0.04 µM): 0.441; relative viability (NCI-H650; first compound 0.1265 µM): 0.46; relative viability (NCI-H650; first compound 0.4 µM): 0.378; relative viability (NCI-H650; first compound 1.265 µM): 0.391; relative viability (NCI-H650; first compound 4 µM): 0.304
